From patent publication US10226433B2, “Use of cannabinoids in the treatment of degenerative skeletal muscle diseases” (GW Research Limited, priority 2014, dated 2019) come the findings set out here.

Assay [1] in a line: Body mass of mdx mice over 16 weeks. To be noted: for Total body mass / Total body mass, difference to vehicle: at week 15, CBD 120 mg/kg/day, DFZ 1.2 mg/kg/day. The class given is in vivo, mouse. As to the method:
(§1) Mdx mice were bred and housed according to Home Office regulations. At 6 weeks of age groups of female mdx mice (control n=18, deflazcort n=18, CBD n=19) were acclimatised to 3.5% Kolliphor/water (v/v) in drinking water.
(§2) Control groups were maintained on 3.5% Kolliphor for the duration of the study. Deflazacort (DFZ) groups were maintained on 3.5% Kolliphor for 2 weeks and then maintained on 1.2 mg/kg/day DFZ in 3.5% Kolliphor for 16 weeks (n=8).
(§3) CBD groups were acclimatised to 3.5% Kolliphor for 7 days. On day 7, 3.5% Kolliphor was supplemented with CBD at 75 mg/kg/day for 3 days; CBD was then increased to 120 mg/kg/day for 16 weeks (n=8).
Mice and bottles were weighed twice weekly to monitor body mass and consumption. Mice are housed in groups, therefore average consumption is calculated.

The subject of assay [2] is Mdx mice. As to the kind of experiment: CD8 positive cells in spleens of mdx mice at week 4. The class given is in vivo, mouse. The conditions noted are these: spleen. As to the method:
as §1, §2, §3
Spleens were recovered at week 4 and CD8 positive cells were analysed.

Assay [3] relates to Mouse C2C12 myoblasts. As to the kind of experiment: Western blot analysis of MyHC protein in differentiating C2C12 cells. The class given is cell-based. To be noted: 72 h exposure to DM+1 μM CBD, relative to control conditions. The method, then: (§4) Mouse C2C12 myoblasts were propagated in a growth medium (GM) composed of Dulbecco's modified Eagle's medium supplemented with 10% fetal bovine serum (FBS), 50 U/ml penicillin plus 50 μg/ml streptomycin, and 1% L-glutamine (Invitrogen, Milan, Italy), in a humidified atmosphere of 95% air/5% CO2 at 37° C.
(§5) Exposure of proliferating C2C12 cells for 24 to 72 h to a lower (from 10% to 0.1%) FBS concentration, plus the addition of 5 μg/ml insulin and 5 μg/ml transferrin (differentiation medium, DM), induced their differentiation into myotubes.
Cells were washed two times in cold PBS and lysed with lysis solution (150 mM NaCl, 1 mM EDTA, pH 7.4, 10 mM Tris-HCl, pH 8, 1% SDS, and protease inhibitors). Lysates (50-60 ug) were boiled 5 min in Laemmli SDS loading buffer and separated by 8% SDS-polyacrylamide gel electrophoresis. Filters were incubated overnight at 4° C. with a mouse anti-MyHC (dilution, 1:1000; Millipore).
An anti-tubulin antibody (dilution, 1:5000; Sigma-Aldrich) was used to check for equal protein loading. Reactive bands were detected by chemiluminescence (ECL-plus; GE Healthcare). Images were analysed on a ChemiDoc station with Quantity one software (Bio-Rad, Segrate, Italy).
The effect of CBD 1 μM on myotube formation was confirmed by western blot analysis.
On the technique in general: In western blotting, separated proteins are transferred to a membrane and probed.

In assay [4] the test system is Mouse C2C12 myoblasts. As to the kind of experiment: C2C12 myoblast differentiation, qPCR of Myog and Tnnt-1 mRNA. To be noted: 24 h in DM, C2C12 cells, vs vehicle. The class given is cell-based. As to the method: as §4, §5
(§6) Total RNA was isolated from […] by use of the TRI-Reagent (Life Technology, Milan, Italy), reacted with DNase-I (1 U/μl; Sigma-Aldrich) following the manufacturer's instructions, and then quantified by spectrophotometric analysis.
[…]. Final preparation of RNA was considered DNA- and protein-free if the ratio between readings at 260/280 nm was >1.7. The purified mRNA was reverse-transcribed by use of reverse transcriptase (enzyme-VILO) (Life Technology, Milan, Italy). Quantitative real-time PCR was carried out in CFX384 real time
(§7) PCR detection system (Bio-Rad, Segrate MI, Italy) with specific primers by the use of SYBR Green detection (Bio-Rad, Segrate MI, Italy). Samples were amplified simultaneously in quadruplicate in one-assay run with a non-template control blank for each primer pair to control for contamination or primer-dimers formation, and the ct (cycle threshold) value for each experimental group was determined.
(§8) The housekeeping genes (the ribosomal protein S16) has been used as an internal control to normalize the ct values, using the 2-dCt formula; differences in mRNA content between groups were as expressed as 2-ddct, as previously described (Iannotti et al. 2013)
In order to gain information about the potential effects of phytocannabinoids on myoblast differentiation, C2C12 cells were induced to differentiate for 24-48 h in DM in the presence or absence of various phytocannabinoids.
qPCR analysis was then utilized to evaluated the expression level of the canonical developmentally regulated skeletal markers Myog and Tnnt-1.
(Quantitative PCR measures a nucleic acid by following its amplification.)

Assay [5] deals with Primary human satellite cells (SC). As to the kind of experiment: Phase contrast microscopy of differentiating primary human satellite cells. The class given is cell-based. To be noted: for Morphology of differentiating SC with respect to vehicle (DMSO) control: after 4 and 5 days of exposure to DM. The method, then: (§9) Primary human satellite cells (SC) were purchased from Innoprot Inc (Bizkaia-Spain) and propagated in a growth medium (GM) which contains essential and non-essential amino acids, vitamins, organic and inorganic compounds, hormones, growth factors, trace minerals and a low concentration of fetal bovine serum (5%) (Innoprot lnc/Bizkaia-Spain) in a humidified atmosphere of 95% air/5% CO2 at 37° C.
(§10) Exposure of proliferating satellite cells 4-5 days to a lower (from 10% to 0.1%) FBS concentration, plus the addition of 5 μg/ml insulin and 5 μg/ml transferrin (differentiation medium, DM), induced their differentiation into myotubes.
Differentiating primary human satellite cells were also examined in phase contrast mode by means of conventional light microscopy. […] In particular, after 5 days of incubation in the presence of phytocannabinoids, the cells appeared more fused and with mature myotubes being larger in size.

For assay [6] the test system is unchanged. As to the kind of experiment: Human satellite cell differentiation, qPCR of Myog, Tnnt-1 and MyHC mRNA. The class given is cell-based. The conditions noted are these: 5 days of SC exposure to DM, vs vehicle. The method, then: as §9, §10
As described in Example 1
To further investigate the effects of the cannabinoids CBD, CBDV and THCV on human skeletal muscle precursor cell differentiation qPCR analysis was used.
In particular, skeletal muscle cell differentiation was quantified by measuring the transcript levels of myogenin (Myog), Troponin (Tnnt-1) and Myosin Heavy Chain (MyHC). All of which are widely considered muscle-specific markers, required for myotube formation.

For assay [7], the system named is Mouse C2C12 myoblasts. As to the kind of experiment: Short-term (10 min) CBD exposure of differentiating C2C12 myoblasts, qPCR. The class given is cell-based. To be noted: DM+1 μM for 10 min. The method, then: as §4, §5, §6, §7, §8
The potential effect of short term CBD exposure at 1 μM on differentiating C2C12 cells was also tested.
The day after plating, C2C12 myoblasts were exposed to DM in presence or not of 1 μM CBD for 10 min.

Assay [8] relates to Mdx mice. As to the kind of experiment: Real time PCR of gastrocnemius muscle of mdx mice at week 4. Format: in vivo, mouse. As to the method:
as §1, §2, §3
Gastrocnemius muscle was recovered at week 4 and relative gene expressions were determined.
RNA was extracted from cells following treatment with CBD. Control RNA was extracted from the control group (RNeasy kit, Qiagen). 2 μg of RNA from each sample was reversed transcribed using oligo dT primers (rt nanoscript 2, Primer Design).
Stable endogenous control genes (Pak1lip1, Htatfs1) were identified using the mouse GeNorm Kit qbase+software (Primer Design).
Real time PCR was conducted using SYBR green (Life Technologies) on an AB Biosystems Thermocycler. All real time PCR experiments were conducted with the following reaction conditions. Initial 95° C. 10 mins, followed by 40 cycles of 95° C. for 15 secs, 60° C. for 1 min, followed by melt curve analysis.
Relative levels of gene expression were determined using the standard curve method and are expressed relative to the average of the endogenous controls.

With `CC(=O)OCC(=O)[C@@]12N=C(C)O[C@@H]1C[C@H]1[C@@H]3CCC4=CC(=O)C=C[C@]4(C)[C@H]3[C@@H](O)C[C@@]12C` [deflazacort, Deflazacort, reference compound], in assay [1], the Total body mass turned out to be 26.26 g and the “Total body mass, difference to vehicle” value is given as 15.8%. The “Total body mass, lighter than vehicle and CBD groups” value in assay [1] (up to week 4, deflazacort 1.2 mg/kg/day in drinking water) is listed as 8.9%. Besides, the “Effect on total percentage CD8 population” value in the assay on Mdx mice [2] is listed as “unaffected”.
`C=C(C)[C@@H]1CCC(C)=C[C@H]1c1c(O)cc(CCCCC)cc1O` [CBD, Cannabidiol]: the “Myosin Heavy Chain (MyHC) protein expression” value in the assay with Mouse C2C12 myoblasts [3] was “significantly increased”. In addition, in assay [1], the Total body mass came out at 29.42 g and the “Total body mass, difference to vehicle” value was 5.6%. In assay [1] (up to week 4, CBD 120 mg/kg/day in drinking water), the “Total body mass compared with vehicle group” value was “did not differ”. In addition, in the assay with Mouse C2C12 myoblasts [4] (1 μM), the “Myogenin (Myog) mRNA expression level” value is “significant increase” and the “Troponin (Tnnt-1) mRNA expression level” value is “significant increase”. Besides, the “Morphology of differentiating SC with respect to vehicle (DMSO) control” value (shortened to “Morphology of differentiating SC”) in assay [5] (1 μM) was “clear morphological differences”. Further, the “Total percentage CD8 population, difference to vehicle” value with Mdx mice [2] (n=9) worked out at 19.7%. In addition, the “Total percentage CD8 population” value with Mdx mice [2] (n=9, vehicle 10.9%) is on record as 8.7%. Besides, in assay [6] (1 μM), the MyHC transcript level entry is recorded as “significantly increased”, the Myog transcript level result is “significantly increased” and the Tnnt-1 transcript level result is reported as “significantly increased”. For the same compound, in the assay with Mouse C2C12 myoblasts [7] (then DM without drug for 3 h), the Myog transcript level result is given as “significantly higher” and the Tnnt-1 transcript level entry is reported as “significantly higher”. For the same compound, in the assay on Mouse C2C12 myoblasts [7] (then DM without drug for 24 h), the Myog transcript level result was “significantly higher” and the Tnnt-1 transcript level result is on record as “significantly higher”. Further, the “Mitochondrially encoded NADH dehydrogenase 2 (MT-ND2) relative gene expression, upregulation” value in the assay with Mdx mice [8] (n=4) stood at 253.2%. In the assay on Mdx mice [8] (n=9), the “PGC1a relative gene expression, upregulation” value was 125.8% and the “Sirtuin-1 (Sirt1) relative gene expression, upregulation” value was 84.9%.
For the compound `C=C(C)[C@@H]1CCC(C)=C[C@H]1c1c(O)cc(CCCCC)c(C(=O)O)c1O` [CBDA, Cannabidiolic acid], the “Myogenin (Myog) mRNA expression level” value in the assay with Mouse C2C12 myoblasts [4] (1 μM) and with Mouse C2C12 myoblasts [4] (3 μM) was “significantly reduced” in each case. Further, the “Troponin (Tnnt-1) mRNA expression level” value in the assay on Mouse C2C12 myoblasts [4] (1 μM) and in the assay on Mouse C2C12 myoblasts [4] (3 μM) was “significantly reduced” each time.
On to `C=C(C)[C@@H]1CCC(C)=C[C@H]1c1c(O)cc(CCC)cc1O` [CBDV, Cannabidivarin], for which, in the assay with Mouse C2C12 myoblasts [4] (1 μM), the “Myogenin (Myog) mRNA expression level” value is given as “significant increase” and the “Troponin (Tnnt-1) mRNA expression level” value is reported as “significant increase”. Moreover, in the assay on Mouse C2C12 myoblasts [4] (3 μM), the “Myogenin (Myog) mRNA expression level” value was “significant increase” and the “Troponin (Tnnt-1) mRNA expression level” value is reported as “significant increase”. Further, in assay [5] (3 μM), the “Morphology of differentiating SC” value is “clear morphological differences”. For the same compound, in assay [6] (3 μM), the MyHC transcript level result is reported as “significantly increased”, the Myog transcript level result was “significantly increased” and the Tnnt-1 transcript level result is given as “significantly increased”.
In the case of `CCCCCc1cc(O)c(C/C=C(\C)CCC=C(C)C)c(O)c1` [CBG, Cannabigerol], in the assay on Mouse C2C12 myoblasts [4] (3 μM), the “Myogenin (Myog) mRNA expression level” value is “significantly reduced” and the “Troponin (Tnnt-1) mRNA expression level” value is on record as “significantly reduced”.
In the case of `CCCc1cc(O)c2c(c1)OC(C)(C)[C@@H]1CCC(C)=C[C@@H]21` [THCV, Tetrahydrocannabivarin], in the assay on Mouse C2C12 myoblasts [4] (1 μM), the “Myogenin (Myog) mRNA expression level” value is listed as “did not produced significant effects” and the “Troponin (Tnnt-1) mRNA expression level” value is recorded as “did not produced significant effects”. Besides, in the assay on Mouse C2C12 myoblasts [4] (3 μM), the “Myogenin (Myog) mRNA expression level” value is given as “did not produced significant effects” and the “Troponin (Tnnt-1) mRNA expression level” value is “did not produced significant effects”. In addition, the “Morphology of differentiating SC” value in assay [5] (3 μM) was “clear morphological differences”. Moreover, the “Cell fusion and size of mature myotubes” value in assay [5] (after 5 days of incubation, CBD 1 μM, CBDV and THCV 3 μM) was “more appreciable”. In addition, in assay [6] (3 μM), the MyHC transcript level result was “significantly increased”, the Myog transcript level result is given as “significantly increased” and the Tnnt-1 transcript level entry is listed as “significantly increased”.
